In patent US20120264159A1, “SCREENING SYSTEM FOR MODULATORS OF HER2 MEDIATED TRANSCRIPTION AND HER2 MODULATORS IDENTIFED THEREBY” (BUCK INSTITUTE FOR AGE RESEARCH, priority 2001, published 2012):
≈ marks a conversion by molar mass, not a printed value. Starred links: 1 amine or outer side, 2 acyl side, 3 side chain; linkers in the order of their positions; H or OH if unused. Positions of bridges follow the written chain, without caps; N, C: chain ends. Non-standard residues stand in square brackets, D forms with d. Residues, ends and D or L forms follow the SMILES beside them. Chains are numbered I, II in the order given. Actinocin(9to1) = Cc1c2oc3c(C)ccc(C(=O)[*:1])c3nc-2c(C(=O)[*:2])c(N)c1=O; NMeV = CN[C@H](C(=O)O)C(C)C; Sar = CNCC(=O)O

What was measured:
[1] = system: NCI panel of 60 human cancer cell lines; details: free drug, cell lines not overexpressing ErbB2; cited from earlier work
BT-474 cells = experiment: In vitro antitumor activity against ErbB2-amplified BT-474 cells; format: cell-based
Protocol: FIG. 9 illustrates validation of NSC-176328 antitumor selectivity. ErbB2-positive human cancer cells are 8.5-fold more sensitive to NSC-176328 than a panel of ErbB2-negative cancer cells. In vitro antitumor activity against ErbB2-amplified BT-474 cells of free and liposome- or immunoliposome-encapsulated Ellipticine (NSC-176328). 6-3-aminopropylellipticine (AE; NSC 176328) was administered to cell cultures as free drug or after being encapsulated into liposomes (L-AE) or immunoliposomes (ILS-AE); the former prevent escape and cell exposure to free AE, the latter specifically internalize into and release AE within ErbB2 overexpressing tumor cells.

ErbB2 transcript = experiment: Northern blot of ErbB2 transcript levels in ErbB2 overexpressing breast cancer cells; format: cell-based, human
Protocol: The conserved and singular DNase I hypersensitivity sites found in the proximal ErbB2 and ESX promoters (12,15) were assayed as before (12). Briefly, following culture treatment of cells, nuclei isolated by mild detergent lysis in a buffer containing 10 mM Hepes pH 7.9, 1.5 mM MgCl2, 10 mM KCl, 0.4% NP-40, 10% glycerol and 1 mM DTT. Partial DNase I digestions were carried out by varying DNase I treatment times (0-15 minutes at 37( ) at a fixed DNase I concentrations (0.5-1.0 units per 10^6 nuclei). After purifying and restricting the DNA, it was electrophoresed through 0.7% agarose gels and blotted onto nylon membranes, UV-crosslinked and hybridized with randomly ^32P-labelled ErbB2 and ESX promoter probes, as similarly performed for routine Southern blotting. For Northern blotting, total (treated vs. control) cell RNA (10 μg/sample lane) was isolated using TRIzol (Invitrogen) according to manufacturer's specifications, electrophoresed into 1% agarose-formaldehyde gels and transferred onto membranes that were then hybridized with ^32P-labelled ErbB2 and ESX cDNA probes. For transcriptional run-off assays cell nuclei were first isolated from treated and control cells as described for the DNase I studies. Elongatation of initiated nascent RNA chains was performed at 37 (C for 30 minutes using ˜5×10^6 nuclei per reaction in a buffer containing 10 mM Tris pH7.5, 2.5 mM MgCl2, 150 mM KCl, 1 mM DTT, 10% glycerol, 0.5 mM ATP, GTP and CTP, and 100 μCi of [α-^32P]UTP (800 Ci/mmol). Nuclear RNA was purified by the addition of 100 units of RNase-free DNase I (Roche) per reaction for 2 minutes followed by TRIzol processing. Radiolabelled RNA was hybridized (˜4×10^6 cpm) at 68 (C in ExpressHyb (Clontech) for 24 hours to nylon filter membranes previously slotted with 0.5 μg per slot of unlabelled ErbB2 cDNA fragments (from either the transmembrane or C-terminal domains), ESX cDNA fragments, and empty plasmid control, as we have previously described (16). Filters were washed at 64 (C in 0.2 SSC and 0.5% SDS. For Western blotting, whole-cell extracts from control vs. treated cells were boiled in sample loading buffer (1% SDS, 20% glycerol, 100 mM DTT, 50 mM Tris, pH 6.8), gel lanes loaded for constant total protein (15 μg), electrophoresed into 9% sodium dodecyl sulfacte polyacrylamide (SDS-PAGE) gels, transferred onto membranes (Immobilon-P, Millipore), and the protein-bound membranes hybridized with a primary antibody followed by a horseradish peroxidase-conjugated secondary antibody (Sigma), and specific protein bands visualized by chemiluminescent substrate (Pierce), as previously described (10).

ESX transcript = experiment: Northern blot of ESX transcript levels in SKBR3 cells; format: cell-based, human; details: 5 hours Act D
Protocol: The conserved and singular DNase I hypersensitivity sites found in the proximal ErbB2 and ESX promoters (12,15) were assayed as before (12). Briefly, following culture treatment of cells, nuclei isolated by mild detergent lysis in a buffer containing 10 mM Hepes pH 7.9, 1.5 mM MgCl2, 10 mM KCl, 0.4% NP-40, 10% glycerol and 1 mM DTT. Partial DNase I digestions were carried out by varying DNase I treatment times (0-15 minutes at 37( ) at a fixed DNase I concentrations (0.5-1.0 units per 10^6 nuclei). After purifying and restricting the DNA, it was electrophoresed through 0.7% agarose gels and blotted onto nylon membranes, UV-crosslinked and hybridized with randomly ^32P-labelled ErbB2 and ESX promoter probes, as similarly performed for routine Southern blotting. For Northern blotting, total (treated vs. control) cell RNA (10 μg/sample lane) was isolated using TRIzol (Invitrogen) according to manufacturer's specifications, electrophoresed into 1% agarose-formaldehyde gels and transferred onto membranes that were then hybridized with ^32P-labelled ErbB2 and ESX cDNA probes. For transcriptional run-off assays cell nuclei were first isolated from treated and control cells as described for the DNase I studies. […]

RO6 HER2 promoter [2] = experiment: Basal promoter activity of MCF-7b stable RO6 populations; format: cell-based, human; details: 10 nM, 24 hours, serum-free media, clone and polyclonal populations
Protocol: (§1) Parental cell lines MCF-7, and MDA-453 were transfected with the construct Ro6pGL (FIG. 2) in conjunction with pcMneo construct using lipid-based transfection (Effectene) at a ratio of 20:1 reporter:selectable marker (see, FIG. 4). Monoclonal and polyclonal populations were selected in 0.5 mg/ml G418 over 2 to 4 weeks.
(§2) Reporter activity was assayed as follows: From T-150 or T-75 culture flasks, about […] cells/well were plated into a 96 well plate format for high-throughput screening. 24 hours post plating a test agent e.g. a drug from a combinatorial library, was added to the wells at various concentrations. Certain wells were used as controls (e.g. PBS or DMSO vehicle only). Replicate wells ([…] per drug concentration) were run. 24 hours after addition of the test agent the cells were lysed, a luciferase reagent was added and activity in each well was read using a high-throughput screening plate reader (labsystems Fluoroskan). Parallel plates were run for cell viability using an MTT assay (Sigma).

RO6 HER2 promoter [3] = experiment: Basal promoter activity of MDA-453 stable RO6 polyclonal populations; format: cell-based, human; details: 10 nM TPA in DMSO, 8 and 48 hr, presence of serum, compared with DMSO only
Protocol: as §1
as §2, with “24 hours after addition of the test agent the cells were lysed, a luciferase reagent was added and activity in each well was read using a high-throughput screening plate reader (labsystems Fluoroskan).” left out

ErbB2 promoter = experiment: Genomically integrated ErbB2 promoter-luciferase reporter screen in MCF/R06pGL-9 cells; format: cell-based, human; details: 24 h treatment
Protocol: as §2
A luciferase reporter plasmid (designated RO6pGL-luc) was constructed by inserting the ˜500 bp SmaI-SmaI fragment of the human ErbB2 proximal promoter (12) into the pGL3Basic plasmid driving a luciferase reporter gene, as has been described (10). R06pGL-luc and a plasmid expressing neomycin phosphotransferase were co-transfected into the MCF-7 cells (ATCC) using Effectene (Qiagen). Cells were selected for stable expression of luciferase and neomycin (G418)-resistance. […] The reaction was quantified by absorbance at 570 nm measured with a microplate reader (Molecular Devices) and the mean (±SD) optical density recorded after normalization by the vehicle treated controls. […]

SMILES: Cc1c2cnccc2c(C)c2c1c1ccccc1n2CCCN [AE, 6-3-aminopropylellipticine]
- average LC50 [1]: 1700 µg/mL
- sensitivity of ErbB2-positive vs ErbB2-negative cancer cells (BT-474 cells; BT-474 vs NCI panel of ErbB2-negative cancer cells): 8.5 fold
- LC50 (BT-474 cells; free drug, ErbB2 overexpressing BT-474 cells): 200 µg/mL (≈ 659 µM)

SMILES: Cc1c2oc3c(C)ccc(C(=O)N[C@@H]4C(=O)N[C@H](C(C)C)C(=O)N5CCC[C@H]5C(=O)N(C)CC(=O)N(C)[C@@H](C(C)C)C(=O)O[C@@H]4C)c3nc-2c(C(=O)N[C@@H]2C(=O)N[C@H](C(C)C)C(=O)N3CCC[C@H]3C(=O)N(C)CC(=O)N(C)[C@@H](C(C)C)C(=O)O[C@@H]2C)c(N)c1=O [Act D, actinomycin D] (I: T[dV]P[Sar][NMeV] / II: T[dV]P[Sar][NMeV]; ester I:1-I:C, II:1-II:C; linker I:N-II:N via Actinocin(9to1))
- ErbB2 mRNA level / decay (ErbB2 transcript; SKBR3 cells, 5 hours treatment, TSA 0.05 or 0.40 μM, Act D 10 μg/ml): only a slight reduction in ErbB2 mRNA level
- ESX mRNA level (ESX transcript): complete loss of the short-lived ESX mRNA

SMILES: CCCCCCCCCCCCCC(=O)O[C@@H]1[C@@H](C)[C@@]2(O)[C@@H](C=C(CO)C[C@]3(O)C(=O)C(C)=C[C@@H]23)[C@@H]2C(C)(C)[C@]12OC(C)=O [TPA]
- basal promoter activity (RO6 HER2 promoter [2]): decreased basal promoter activity
- basal promoter activity (RO6 HER2 promoter [3]): no significant effect on basal promoter activity

SMILES: C[C@@H]1C[C@@H]([C@H](O)CC2CC(=O)NC(=O)C2)C(=O)[C@@H](C)C1 [cycloheximide]
- effect on TSA induced ErbB2 transcript decay (ErbB2 transcript; BT-474 or MDA-453 cells (data not shown)): no ability to arrest TSA induced ErbB2 transcript decay
- ErbB2 transcript levels in control cells (ErbB2 transcript; SKBR3 cells, 50 μg/ml): no effect on ErbB2 transcript levels in control cells
- effect on TSA induced accelerated ErbB2 mRNA degradation (ErbB2 transcript; SKBR3 cells, 50 μg/ml): completely inhibited the accelerated ErbB2 mRNA degradation induced by TSA

SMILES: CCCC(=O)[O-].[Na+] [sodium butyrate]
- ErbB2 promoter-reporter (luciferase) activity (ErbB2 promoter): significantly represses
- ErbB2 transcript levels (ErbB2 transcript; 3 mM × 24 hours (data not shown)): Virtually complete elimination of ErbB2 transcript levels
